Data from BindingDB's records for patent US12441689 (Epivario, 2025).

Molecular target: Acetyl-coenzyme A synthetase, cytoplasmic (Homo sapiens, UniProt Q9NR19)
Experiment: ACSS2 Cell-Free Activity Assay
Experimental: At the end of the reaction, Biomol Green was added for 30 minutes at RT and the activity was measured by reading the absorbance at 620 nm.

Chain of Acetyl-coenzyme A synthetase, cytoplasmic (Q9NR19 whole entry): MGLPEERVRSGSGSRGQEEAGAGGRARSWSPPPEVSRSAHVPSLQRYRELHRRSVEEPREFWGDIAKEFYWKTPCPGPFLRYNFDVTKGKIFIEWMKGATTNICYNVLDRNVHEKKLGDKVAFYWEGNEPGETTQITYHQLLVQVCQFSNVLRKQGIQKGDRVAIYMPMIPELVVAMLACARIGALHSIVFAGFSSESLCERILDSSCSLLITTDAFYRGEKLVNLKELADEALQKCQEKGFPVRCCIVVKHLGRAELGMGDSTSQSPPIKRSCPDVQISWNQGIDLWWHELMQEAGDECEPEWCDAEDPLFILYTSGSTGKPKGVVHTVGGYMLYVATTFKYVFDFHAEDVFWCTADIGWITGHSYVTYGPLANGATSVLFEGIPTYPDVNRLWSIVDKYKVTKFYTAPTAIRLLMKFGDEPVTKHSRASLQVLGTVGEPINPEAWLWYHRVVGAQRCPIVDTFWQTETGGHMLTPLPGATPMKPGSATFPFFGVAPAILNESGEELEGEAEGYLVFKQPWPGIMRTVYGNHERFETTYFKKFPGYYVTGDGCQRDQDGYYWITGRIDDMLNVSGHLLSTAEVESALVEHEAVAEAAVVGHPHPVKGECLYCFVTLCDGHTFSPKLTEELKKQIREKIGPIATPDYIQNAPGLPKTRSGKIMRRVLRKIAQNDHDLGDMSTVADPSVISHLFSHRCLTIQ

`CCC(F)(F)c1cccc(NC(=O)c2nc(-c3ccc4cc[nH]c4c3)oc2C)c1` [US12441689, Compound 106] gave an IC50 greater than 100 nM.
